In patent publication US12398235B2, “Oligomeric epoxy pre-polymers comprising isosorbide units” (ROQUETTE FRERES, priority 2020, dated 2025):

System: bacterial strain (mutant bacterial colonies)
Assay: Ames test of epoxy pre-polymers (mutagenic potential)
Format: cell-based
Conditions: number of mutant bacterial colonies from a given strain exposed to the compound, non-toxic at induction ratio of 2 or less
Method: In order to determine the mutagenic potential of the epoxy pre-polymers, an Ames test was carried out on different Mn and EEW epoxy resins. The results are expressed in induction levels, that is, the number of mutant bacterial colonies obtained from a given strain exposed to the compound. The resin is considered to be non-toxic in the case of an induction ratio of 2 or less.

C1OC1COC1COC2C(OCC3CO3)COC12 (stereo not shown) [IDGE 1* fraction, isosorbide diglycidylether]
Induction ratio: 20.2
